Experiments:
[1] = test system: voltage-gated potassium channels; assay: Whole-cell patch-clamp, total potassium currents in DRG neurons; type: cell-based, rat; conditions: 20 μM (DMSO: 420.9±54.19)
Experimental: (§1) Recordings were obtained from acutely dissociated DRG neurons as described earlier (Bellampalli et al., 2019). Patch-clamp recordings were performed at room temperature (22-24° C.). Currents were recorded using an EPC 10 Amplifier-HEKA (HEKA Elektronik, Ludwigshafen, Germany) linked to a computer with Patchmaster software. DRG neurons were incubated overnight (˜16-24 hours) with 20 μM of CBD3063.
To isolate potassium currents (IK+), DRG neurons were bathed in external solution composed of (in millimolar): 140 N-methyl-glucamine chloride, 5 KCl, 1 MgCl2, 2 CaCl2, 10 D-glucose, and 10 HEPES (pH adjusted to 7.3 with KOH and mOsm/L=313). Recording pipettes were filled with internal solution containing (in mM): 140 KCl, 2.5 MgCl2, 4 Mg-ATP, 0.3 Na-GTP, 2.5 CaCl2), 5 EGTA, and 10 HEPES (pH adjusted to 7.3 with KOH and mOsm/L=320). From a holding potential of −60 mV, IK activation was determined by applying 300-millisecond voltage steps from −80 to +60 mV in 10-mV increments.
Normalization of currents to each cell's capacitance (pF) was performed to allow for collection of current density data. For I-V curves, functions were fitted to data using a non-linear least squares analysis. I-V curves were fitted using double Boltzmann functions: […]

[2] = target: T1, Cav2.3 (R-type) calcium channels (Rattus norvegicus, UniProt Q07652); assay: Whole-cell patch-clamp, isolated R-type Ca2+ currents in DRG neurons; type: cell-based
T1 construct: Recordings were obtained from acutely dissociated DRG neurons; endogenous in cells; host or cells: acutely dissociated rat DRG neurons
T1 sequence (Q07652 whole entry): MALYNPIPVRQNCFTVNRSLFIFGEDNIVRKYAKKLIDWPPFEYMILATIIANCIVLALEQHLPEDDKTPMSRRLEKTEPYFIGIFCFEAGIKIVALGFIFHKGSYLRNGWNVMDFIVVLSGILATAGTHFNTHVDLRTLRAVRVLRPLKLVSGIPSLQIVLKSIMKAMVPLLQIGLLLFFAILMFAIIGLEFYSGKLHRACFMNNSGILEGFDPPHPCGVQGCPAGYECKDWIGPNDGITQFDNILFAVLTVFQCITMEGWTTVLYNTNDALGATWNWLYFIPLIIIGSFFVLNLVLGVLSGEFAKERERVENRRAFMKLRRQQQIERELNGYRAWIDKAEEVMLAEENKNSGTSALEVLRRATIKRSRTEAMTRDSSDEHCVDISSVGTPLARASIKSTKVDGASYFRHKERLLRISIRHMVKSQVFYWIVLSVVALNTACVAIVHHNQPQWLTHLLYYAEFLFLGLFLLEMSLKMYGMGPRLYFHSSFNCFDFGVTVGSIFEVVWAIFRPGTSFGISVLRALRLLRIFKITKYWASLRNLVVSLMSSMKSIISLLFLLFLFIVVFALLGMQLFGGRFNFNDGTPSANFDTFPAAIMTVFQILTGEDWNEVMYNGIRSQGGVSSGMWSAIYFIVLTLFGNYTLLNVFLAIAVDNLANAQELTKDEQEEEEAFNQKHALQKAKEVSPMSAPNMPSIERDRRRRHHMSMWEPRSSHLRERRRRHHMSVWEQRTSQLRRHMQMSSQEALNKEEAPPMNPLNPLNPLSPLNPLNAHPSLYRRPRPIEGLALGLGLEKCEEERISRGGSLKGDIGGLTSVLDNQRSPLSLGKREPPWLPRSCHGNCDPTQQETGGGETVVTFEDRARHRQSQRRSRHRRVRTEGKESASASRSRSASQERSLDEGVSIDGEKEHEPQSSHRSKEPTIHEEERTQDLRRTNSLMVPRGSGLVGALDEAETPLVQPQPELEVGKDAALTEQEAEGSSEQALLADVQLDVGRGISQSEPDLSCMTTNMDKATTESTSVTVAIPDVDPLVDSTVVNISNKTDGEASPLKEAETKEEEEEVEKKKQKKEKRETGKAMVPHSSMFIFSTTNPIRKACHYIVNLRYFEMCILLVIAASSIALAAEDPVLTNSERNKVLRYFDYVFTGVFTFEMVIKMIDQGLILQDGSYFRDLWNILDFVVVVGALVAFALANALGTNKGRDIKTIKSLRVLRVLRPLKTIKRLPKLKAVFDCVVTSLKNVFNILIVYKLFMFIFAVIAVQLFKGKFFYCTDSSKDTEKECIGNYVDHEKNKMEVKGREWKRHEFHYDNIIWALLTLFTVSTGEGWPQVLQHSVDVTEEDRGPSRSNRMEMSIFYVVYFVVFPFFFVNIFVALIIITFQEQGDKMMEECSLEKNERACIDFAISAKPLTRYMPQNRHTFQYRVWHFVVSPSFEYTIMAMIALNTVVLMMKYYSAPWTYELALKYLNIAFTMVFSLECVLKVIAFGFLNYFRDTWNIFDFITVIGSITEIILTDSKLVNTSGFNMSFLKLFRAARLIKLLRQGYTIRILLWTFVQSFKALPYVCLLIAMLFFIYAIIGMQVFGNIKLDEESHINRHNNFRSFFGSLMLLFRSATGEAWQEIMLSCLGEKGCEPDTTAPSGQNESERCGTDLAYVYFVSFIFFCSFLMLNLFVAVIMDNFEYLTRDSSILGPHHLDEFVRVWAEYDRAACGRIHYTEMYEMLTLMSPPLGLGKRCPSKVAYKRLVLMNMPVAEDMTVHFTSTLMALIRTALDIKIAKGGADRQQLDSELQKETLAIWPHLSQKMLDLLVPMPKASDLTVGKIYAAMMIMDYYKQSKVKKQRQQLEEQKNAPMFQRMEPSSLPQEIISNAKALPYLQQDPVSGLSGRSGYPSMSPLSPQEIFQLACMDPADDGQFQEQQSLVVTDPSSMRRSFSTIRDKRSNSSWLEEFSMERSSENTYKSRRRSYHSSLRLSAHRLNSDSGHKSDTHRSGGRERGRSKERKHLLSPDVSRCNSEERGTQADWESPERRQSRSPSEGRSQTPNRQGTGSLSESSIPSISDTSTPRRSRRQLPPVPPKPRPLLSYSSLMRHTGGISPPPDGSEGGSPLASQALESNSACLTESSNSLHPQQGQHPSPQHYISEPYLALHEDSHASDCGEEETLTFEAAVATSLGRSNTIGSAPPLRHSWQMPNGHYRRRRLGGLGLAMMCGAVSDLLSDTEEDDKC
T1 sequence (P54290 25-1091 partner): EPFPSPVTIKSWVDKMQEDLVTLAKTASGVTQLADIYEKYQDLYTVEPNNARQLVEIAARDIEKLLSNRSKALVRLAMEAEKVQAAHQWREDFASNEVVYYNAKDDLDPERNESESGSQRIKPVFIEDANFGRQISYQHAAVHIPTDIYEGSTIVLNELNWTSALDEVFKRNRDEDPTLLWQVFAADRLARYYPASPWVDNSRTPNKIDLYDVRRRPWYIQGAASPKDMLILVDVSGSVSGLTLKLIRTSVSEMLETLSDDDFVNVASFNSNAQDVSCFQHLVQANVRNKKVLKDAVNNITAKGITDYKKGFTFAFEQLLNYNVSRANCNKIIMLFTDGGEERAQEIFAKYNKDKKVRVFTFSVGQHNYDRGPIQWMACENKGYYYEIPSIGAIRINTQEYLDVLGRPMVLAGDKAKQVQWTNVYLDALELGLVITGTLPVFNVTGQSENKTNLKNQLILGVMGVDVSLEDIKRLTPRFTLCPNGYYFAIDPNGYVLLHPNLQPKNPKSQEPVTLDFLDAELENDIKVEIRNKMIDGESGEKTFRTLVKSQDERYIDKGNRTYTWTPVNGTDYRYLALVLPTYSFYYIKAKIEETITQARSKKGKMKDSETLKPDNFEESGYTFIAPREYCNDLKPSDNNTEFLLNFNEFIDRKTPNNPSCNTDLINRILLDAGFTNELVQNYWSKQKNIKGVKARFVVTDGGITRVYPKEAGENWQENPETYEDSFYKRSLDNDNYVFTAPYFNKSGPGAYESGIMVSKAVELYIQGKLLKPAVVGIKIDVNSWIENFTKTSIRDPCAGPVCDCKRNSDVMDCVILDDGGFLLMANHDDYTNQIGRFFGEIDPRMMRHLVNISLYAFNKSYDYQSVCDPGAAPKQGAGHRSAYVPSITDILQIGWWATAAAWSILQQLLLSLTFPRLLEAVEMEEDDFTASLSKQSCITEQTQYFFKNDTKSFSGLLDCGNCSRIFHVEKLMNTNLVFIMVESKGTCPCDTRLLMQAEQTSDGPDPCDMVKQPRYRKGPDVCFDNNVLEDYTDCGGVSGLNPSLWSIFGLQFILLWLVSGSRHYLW
T1 sequence (P54287 whole entry partner): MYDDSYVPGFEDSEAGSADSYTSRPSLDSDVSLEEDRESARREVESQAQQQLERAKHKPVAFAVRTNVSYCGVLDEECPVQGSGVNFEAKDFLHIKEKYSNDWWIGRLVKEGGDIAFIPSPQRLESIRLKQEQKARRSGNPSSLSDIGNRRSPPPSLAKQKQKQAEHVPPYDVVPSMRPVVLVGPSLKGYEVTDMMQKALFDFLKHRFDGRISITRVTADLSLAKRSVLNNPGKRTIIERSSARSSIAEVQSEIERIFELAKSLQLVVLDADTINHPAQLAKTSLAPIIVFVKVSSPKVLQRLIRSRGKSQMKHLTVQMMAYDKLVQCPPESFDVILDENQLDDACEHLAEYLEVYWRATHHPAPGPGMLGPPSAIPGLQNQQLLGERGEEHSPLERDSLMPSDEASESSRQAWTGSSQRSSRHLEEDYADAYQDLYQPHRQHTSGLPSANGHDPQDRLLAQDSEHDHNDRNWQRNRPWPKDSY
Experimental: as §1
(§2) For total calcium current (ICa^2+) recordings, the external solution consisted of the following (in mM): 110 N-methyl-D-glucamine, 10 BaCl2, 30 TEA-Cl, 10 HEPES, 10 glucose, and 0.001 TTX (pH 7.29 adjusted with TEA-OH, and mOsm/L=310). Patch pipettes were filled with an internal solution containing (in mM): 150 CsCl2, 10 HEPES, 5 Mg-ATP, and 5 BAPTA, (pH 7.2 adjusted with CsOH, and mOsm/L-305). Peak Ca^2+ current was acquired by applying 200-millisecond voltage steps from −70 to +60 mV in 10-mV increments from a holding potential of −90 mV to obtain the current-voltage (I-V) relation. To measure the different subtypes of Ca^2+ channels, DRGs were treated with a Cav inhibitor cocktail omitting the inhibitor specific to the subtype being tested (e.g., to measure Cav2.2 currents, ω-conotoxin GVIA is omitted): Nifedipine (10 μM, L-type), ω-Conotoxin-GVIA (500 nM, […]) (Feng, et al., 2001), SNX482 (200 nM, R-type) (Newcomb et al., 1998), ω-agatoxin (200 nM, P/Q-type) (Mintz et al., 1992), TTA-P2 (1 μM, T-type) (Choe et al., 2011).
(§3) Normalization of currents to each cell's capacitance (pF) was performed to allow for collection of current density data. For I-V curves, functions were fitted to data using a non-linear least squares analysis. I-V curves were fitted using double Boltzmann functions:
(§4) where x is the pre-pulse potential, V1/2 is the mid-point potential, and k is the corresponding slope factor for single Boltzmann functions. Double Boltzmann fits were used to describe the shape of the curve, not to imply the existence of separate channel populations. Numbers 1 and 2 simply indicate first and second mid-points; a along with g are fitting parameters.
(§5) Activation curves were obtained from the I-V curves by dividing the peak current at each depolarizing step by the driving force according to the equation: G=I/(Vmem-Erev), where I is the peak current, Vmem is the membrane potential and Erev is the reversal potential. The conductance (G) was normalized against the maximum conductance (Gmax). For total and the different subtypes of Ca^2+ currents, steady-state inactivation (SSI) curves were obtained by applying an H-infinity protocol that consisted of 1.5-seconds conditioning pre-pulses from −100 to +30 mV in 10-mV increments followed by a 20-millisecond test pulse to +10 mV. For Na^+ currents, SSI curves were obtained by applying an H-infinity protocol that consisted of 1-second conditioning pre-pulses from −120 to +10 mV in 10-mV increments followed by a 200-millisecond test pulse to +10 mV. Inactivation curves were obtained by dividing the peak current recorded at the test pulse by the maximum current (Imax). Activation and SSI curves were fitted with the Boltzmann equation.

[3] = test system: rat DRG sensory neurons; assay: Whole-cell current-clamp, excitability of DRG sensory neurons; type: cell-based; design: rheobase: unit not given here
Experimental: Cav2.2 channels have critical roles in controlling the excitability of DRG neurons, according to earlier studies (Yang et al., 2018). Since Cav2.2 populations are affected by CBD3063, the ability of CBD3063 to alter the excitability of DRG sensory neurons was investigated (FIGS. 7A-D). Action potentials (AP) were elicited in rat sensory neurons during whole cell current-clamp tests in response to current injections from 0-120 pA after overnight incubation with 0.1% DMSO or 20 μM CBD3063.

[4] = test system: total Ca2+ currents; assay: Whole-cell patch-clamp, total Ca2+ currents in small-to-medium DRG neurons; type: cell-based, rat; conditions: 20 μM overnight
Experimental: as §1, §2, §3, §4, §5

[5] = 20 μM overnight, mean ± SEM (n cells)

effect on Ca2+ influx through Cav2.3 (R-type) channels (current density-voltage curve, peak current density) ([2]; 20 μM overnight vs 0.1% DMSO): does not alter
R-type Ca2+ currents, activation V1/2 [2, 5]: −4.098 ± 0.693 (11) mV
R-type Ca2+ currents, activation k (slope factor) [2, 5]: 7.244 ± 0.579 (11)
R-type Ca2+ currents, inactivation V1/2 [2, 5]: −16.840 ± 2.186 (11) mV
R-type Ca2+ currents, inactivation k (slope factor) [2, 5]: −11.870 ± 1.850 (11)
SMILES: CC(=O)N[C@@H]1CCCN(C(=O)NCCCNc2ccccn2)C1 [CBD3063, (3R)-3-acetamido-N-[3-(pyridin-2-ylamino)propyl]piperidine-1-carboxamide]
peak potassium current density [1]: 422.1±52.70 pA/pF
rheobase ([3]; 20 μM overnight (DMSO: 15.00±3.416)): 48.33±9.098
resting membrane potential ([3]; 20 μM overnight (DMSO: −44.50±1.478)): −50.00±1.915 mV
number of evoked action potentials ([3]; 20 μM overnight, current injection steps 10 to 120 pA): reduced the number of evoked APs
peak total calcium current density ([4]; +10 mV (DMSO: −93.23±10.40)): −49.84±6.17 pA/pF
reduction in Ca2+ currents at peak current density ([4]; +10 mV, vs 0.1% DMSO): ~46.54%
Total Ca2+ currents, activation V1/2 ([4]; mean ± SEM (n cells)): 0.971 ± 2.338 (16) mV
Total Ca2+ currents, activation k (slope factor) ([4]; mean ± SEM (n cells)): 11.004 ± 2.181 (16)
Total Ca2+ currents, inactivation V1/2 ([4]; mean ± SEM (n cells)): −20.944 ± 3.182 (16) mV
Total Ca2+ currents, inactivation k (slope factor) ([4]; mean ± SEM (n cells)): −14.132 ± 2.880 (16)
normalized peak total ICa2+ density ([4]; normalized to 0.1% DMSO control (1.00±0.06)): 0.51±0.04 ratio to DMSO control
